Experimental data from patent publication US20020127605A1 (priority 2000, published 2002).

What follows are compounds tested against T1, recombinant rat CyPA-GST fusion protein (Rattus norvegicus, UniProt P10111) (assay: Rotamase (prolyl peptidyl cis-trans isomerase) inhibition, chymotrypsin-coupled cuvette assay). Details: not given.
T1 construct: made in house; host or cells: E. coli BL21
Type: biochemical
Excerpt: A number of substrates for rotamase are known in the art or can be derived from those known. Typically, the substrate contacts a sample containing a protein with rotamase activity and the conversion of the substrate is detected after a period of time. The method for detecting conversion of the substrate will vary with the particular substrate chosen. One method has been termed the Ki test (See Harding, et al., Nature, 341:758-760 (1989). The cis-trans isomerization of an alanine-proline bond in a model substrate, N-succinyl-Ala-Ala-Pro-Phe-p-nitroanilide, is monitored spectrophotometrically in a chymotrypsin-coupled assay. The action of chymotrypsin releases p-nitroaniline from only the trans form of the substrate. The amount of p-nitroaniline can be monitored in a spectrophotometer, for example. Other methods of detecting the presence of p-nitroaniline can also be used. The inhibition of this reaction caused by different concentrations of inhibitor is determined and the data are analyzed as a change in first-order rate constant as a function of inhibitor concentration, which yields the Ki value.
The following were added to a plastic cuvette: […] of ice cold assay buffer (25 mM HEPES, pH 7.8, 100 mM NaCl), 10 μL of CyP A (2.5 μM in 10 mM Tris-Cl pH 7.5, 100 mM NaCl, 1 mM dithiothreitol), 25 μL of chymotrypsin (50 mg/ml in 1 mM HCl), and 10 μL of test compound, at various concentrations, in dimethyl sulfoxide. The reaction was initiated by the addition of 5 μL of substrate (succinyl-Ala-Phe-Pro-Phe-para-nitroanilide, 5 mg/mL in 470 mM LiCl in trifluoroethanol). The absorbance at 390 nm versus time was monitored for 90 seconds using a spectrophotometer and the rate constants were determined from the absorbance versus time data files.
The IC50 values that were obtained for representative compounds in the following Table I refer to the concentration that inhibits 50% of the rotamase activity in a sample. […] The Cyclophilin utilized was a recombinant rat CyPA-GST fusion protein: CypA was amplified from rat brain cDNA using standard PCR methods, primed with the following sequences: 5′ CCCCCCGGGAGTCAACCCCACCGTGTTCTTCGA 3′ and 5′ GGAGATCTAGAGTTGTCCACAGTCGGAGATGGT 3′. The resulting fragment (573 base pairs) was cloned into pCRII and amplified. The CyP sequence was cut out with Smal and EcoRl and cloned into the Smal/EcoRl sites in pGEX2TK (Pharmacia). This plasmid was transformed into BL21 E. coli cells for expression of the GST-CyPA fusion protein.

T1 sequence (P10111 2-164): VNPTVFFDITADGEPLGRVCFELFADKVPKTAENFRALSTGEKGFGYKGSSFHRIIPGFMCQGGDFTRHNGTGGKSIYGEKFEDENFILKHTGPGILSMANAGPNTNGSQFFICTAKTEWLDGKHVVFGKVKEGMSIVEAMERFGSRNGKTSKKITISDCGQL

Row | Compound | IC50 [nM]
1 | O=C(Nc1cccc(Oc2ccccc2)c1)Nc1cc(C(F)(F)F)cc(C(F)(F)F)c1 [Compound 26] | 1560
2 | COc1ccc(S(=O)(=O)N(c2cccc(NC(=O)c3cc(Cl)cc(Cl)c3)c2)S(=O)(=O)c2ccc(C)cc2)cc1 [Compound 3] | 955
3 | O=C(Nc1cccc(N(S(=O)(=O)c2cc(Cl)cc(Cl)c2)S(=O)(=O)c2cc(Cl)cc(Cl)c2)c1)Nc1c(Cl)cccc1Cl [Compound 6] | 990
4 | Cc1ccc(S(=O)(=O)N(c2cccc(NC(=O)Nc3cc(Cl)cc(Cl)c3)c2)S(=O)(=O)c2ccc(C)cc2)cc1 [Compound 2] | 149
5 | O=C(Nc1ccccc1NC(=O)c1ccc(I)cc1)c1ccc(I)cc1 [Compound 29] | 940
6 | O=C(Nc1cc(Cl)cc(Cl)c1)Nc1cccc(N(S(=O)(=O)c2cc(Cl)cc(Cl)c2)S(=O)(=O)c2cc(Cl)cc(Cl)c2)c1 [Compound 7] | 1220
7 | O=C(Nc1cc(Cl)cc(Cl)c1)Nc1ccccc1NC(=O)Nc1cc(Cl)cc(Cl)c1 [Compound 27] | 667
8 | O=C(Nc1cc(Cl)cc(Cl)c1)[C@@H]1CC[C@H](NC(=S)Nc2cc(Cl)cc(Cl)c2)C1 [Compound 17] | 854

Same assay, conditions: recombinant rat CyPA-GST fusion protein; values without asterisk; read-out: IC50 (rotamase activity)

Row | Compound | IC50 [nM]
9 | O=C(NNC(=S)Nc1cc(Cl)cc(Cl)c1)c1cccc(OCc2cc(C(F)(F)F)cc(C(F)(F)F)c2)c1 [Compound 23] | 895
10 | S=C(Nc1cc(Cl)cc(Cl)c1)Nc1cccc(C=C(c2ccc(Cl)cc2)c2ccc(Cl)cc2)c1 [Compound 20] | 188
11 | COc1ccc(S(=O)(=O)N(c2cccc(N(S(=O)(=O)c3cc(Cl)cc(Cl)c3)S(=O)(=O)c3cc(Cl)cc(Cl)c3)c2)S(=O)(=O)c2ccc(OC)cc2)cc1 [Compound 10, (3-{Bis[(3,5-dichlorolphenyl)sulfonyl]amino}phenyl)bis[(4-methoxyphenyl)sulfonyl]amine] | 732
12 | O=C(COc1cccc(NC(=O)c2cc(Cl)cc(Cl)c2)c1)Nc1cc(Cl)cc(Cl)c1 [Compound 24, N-(3,5-dichlorophenyl)-2-{3-[(3,5-dichlorolphenyl)carbonylamino]phenoxy}ethanamide] | 909
13 | O=C(Nc1cccc(OS(=O)(=O)c2c(F)c(F)c(F)c(F)c2F)c1)c1cc(Cl)cc(Cl)c1 [Compound 25, 3-[(3,5-dichlorophenyl)carbonylamino]phenyl 2,3,4,5,6-penta-fluorobenzenesulfonate] | 964
14 | S=C(Nc1cc(Cl)cc(Cl)c1)NC1CCCCC1NC(=S)Nc1cc(Cl)cc(Cl)c1 (centres unmarked) [Compound 15, [(3,5-dichlorophenyl)amino]{[2-({[(3,5-dichlorophenyl)amino]thioxomethyl}amino)cyclohexyl]amino}methane-1-thione] | 610
15 | S=C(Nc1ccc(Cl)c(Cl)c1)NC1CCCCC1NC(=S)Nc1ccc(Cl)c(Cl)c1 (centres unmarked) [Compound 14, [(3,4-dichlorophenyl)amino]{[2-({[(3,4-dichlorophenyl)amino]thioxomethyl}amino)cyclohexyl]amino}methane-1-thione] | 786
16 | FC(F)(F)c1cc(NC(=S)NC2CCCCC2NC(=S)Nc2cc(C(F)(F)F)cc(C(F)(F)F)c2)cc(C(F)(F)F)c1 (centres unmarked) [Compound 12, {[3,5-bis(trifluoromethyl)phenyl]amino}({2-[({[3,5-bis(trifluoromethyl)phenyl]amino}thioxomethyl)amino]cyclohexyl}amino)methane-1-thione] | 767
17 | COc1ccc(S(=O)(=O)N(c2cccc(N(S(=O)(=O)c3cc(Cl)cc(Cl)c3)S(=O)(=O)c3cc(Cl)cc(Cl)c3)c2)S(=O)(=O)c2ccc(C)cc2)cc1 [Compound 4, (3-{bis[(3,5-dichlorophenyl)sulfonyl]amino}phenyl)[(4-methoxy-phenyl)sulfonyl][(4-methylphenyl)sulfonyl]amine] | 995
18 | O=C(Nc1cc(Cl)cc(Cl)c1)N[C@H]1CC[C@@H](NC(=O)Nc2cc(Cl)cc(Cl)c2)CC1 [Compound 16, cis-[(3,5-Dichlorophenyl)amino]-N-(4-{[(3,5-dichlorolphenyl)amino]carbonylamino}cyclohexyl)formamide] | 1530
19 | bis[(3,5-dichlorophenyl)sulfonyl](3-{[(naphthylamino) thioxomethyl]amino}phenyl)amine [Compound 5] | 783
20 | O=C(Nc1cc(Cl)cc(Cl)c1)[C@@H]1C=C[C@H](NC(=S)Nc2cc(Cl)cc(Cl)c2)C1 [Compound 18, (1S,3R)-N-(3,5-dichlorophenyl)[4-({[(3,5-dichlorolphenyl)amino]thioxomethyl}amino)cyclopent-2-enyl]formamide] | 901
21 | COc1ccc(S(=O)(=O)N(c2cccc(NC(=O)Nc3cc(Cl)cc(Cl)c3)c2)S(=O)(=O)c2ccc(C)cc2)cc1 [Compound 1, [(3,5-dichlorophenyl)amino]-N-(3-{[(4-methoxylihenyl)sulfonyl][(4-methylphenyl)sulfonyl]amino}phenyl)formamide] | 162
22 | S=C(Nc1cc(Cl)cc(Cl)c1)Nc1ccccc1NC(=S)Nc1cc(Cl)cc(Cl)c1 [Compound 28, [(3,5-dichlorophenyl)amino]{[2-({[(3,5-dichlorophenyl)amino]thioxomethyl}amino)phenyl]amino}methane-1-thione] | 1100
23 | O=C(Nc1cc(Cl)cc(Cl)c1)[C@H]1CC[C@@H](NC(=S)Nc2cc(Cl)cc(Cl)c2)C1 [Compound 19] | 754

What follows are compounds tested against human recombinant CyPA (Homo sapiens, UniProt P62937) (assay: Semiautomated microtiter plate assay of rotamase activity inhibition). Details: 30 minute preincubation at 4° C., read-out: IC50 (rotamase inhibition, modified plate reader assay).
Sequence of human recombinant CyPA (P62937 whole entry): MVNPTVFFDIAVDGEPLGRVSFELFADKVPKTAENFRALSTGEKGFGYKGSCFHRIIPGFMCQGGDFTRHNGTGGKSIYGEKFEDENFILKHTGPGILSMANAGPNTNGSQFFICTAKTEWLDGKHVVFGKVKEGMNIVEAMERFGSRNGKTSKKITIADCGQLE
Type: biochemical
Protocol: Semiautomated Assay of Rotamase Activity Inhibition: Rotamase inhibition was determined using a semiautomated microtiter plate assay modification of the above described assay [see Küillertz et al., Clin. Chem. 44, 502-508 (1998)]. All dilutions of CyPA, peptide substrate, and chymotrypsin were made in 35 mM ice-cold HEPES buffer. Fifty μL of CyPA solution were added to 50 μL of peptide substrate solution (Phe-Pro-Phe p-nitroanilide, 0.16 mg/ml) in a glass microtiter well plate (the concentration of human recombinant CyP being adjusted so that the reaction rate is increased by a factor of 3 as compared to an uncatalyzed control reaction wherein the peptide substrate is degraded by chymotrypsin alone, in the absence of CyPA and test compound). Using a Beckman Multimek™ 96 automated 96-channel pipettor, 5 μL of test compound solution, or a DMSO blank, were added to each well for a 30 minute preincubation at 4° C. One hundred μL of chymotrypsin solution (1 mg/mL) were added to each well and the absorbance at 390 nm versus time was monitored for 9-10 minutes using a BioRad Ultramark plate reader maintained at 4° C. and the rate constants were determined from the absorbance versus time data files. The cyclophilin utilized was a human recombinant CyPA [Yoo et al., J. Mol. Biol., 269 (1997) 780-95].
IC50 values which were obtained for representative compounds using this modified plate reader assay of rotamase inhibition are given in the following Table II: […]

Row | Compound | IC50 [nM]
24 | O=C(CCCCc1ccccc1)Nc1cccc(S(=O)(=O)NC(=S)Nc2ccc(Cl)c(Cl)c2)c1 [Compound 34A] | 4640
25 | L-N-[3-(6-Phenylhexanoylamino)benzoyl]proline 3,4-dichlorobenzamide [Compound 36] | 9050
26 | O=C(CCCCc1cccs1)Nc1cccc(C(=O)NNC(=S)Nc2ccc(Cl)c(Cl)c2)c1 [Compound 38, 1-{[1-Aza-2-oxo-6-(thien-2-yl)]hexyl}-3-{[5-(3,4-dichlorophenyl)-1-oxo-2,3,5-triaza-4-thio]pentyl}benzene] | 672
27 | O=C(CCCCc1ccccc1)Nc1cccc(-c2nnc(Nc3ccc(Cl)c(Cl)c3)o2)c1 [Compound 40B, 5-Phenyl-pentanoic acid {3-[5-(3,4-dichloro-phenylamino)-[1,3,4]oxadiazol-2-yl]-phenyl}-amide] | 883
28 | O=S(=O)(c1cc(Cl)cc(Cl)c1)N(c1cccc(N(S(=O)(=O)c2ccc3ccccc3c2)S(=O)(=O)c2ccc3ccccc3c2)c1)S(=O)(=O)c1cc(Cl)cc(Cl)c1 [Compound 9, (3-{Bis[(3,5-dichlorophenyl)sulfonyl]amino}phenyl)bis(2-naphthylsulfonyl)amine] | 309
29 | O=C(CCCCc1ccccc1)Nc1cccc(/C=N/NC(=S)Nc2ccc(Cl)c(Cl)c2)c1 [Compound 39, N-{3-[(1E)-2-aza-2-({[(3,4-dichlorophenyl)amino]thioxomethyl}amino)vinyl]phenyl}-5-phenylpentanamide] | 1410
30 | O=C(CCCCc1ccccc1)Nc1cccc(S(=O)(=O)NC(=O)Nc2ccc(Cl)c(Cl)c2)c1 [Compound 34B] | 19100
31 | O=C(CCCCCc1cccc(C(F)(F)F)c1)Nc1cccc(C(=O)NNC(=S)Nc2ccc(Cl)c(Cl)c2)c1 [Compound 32, 1-{[1-Aza-2-oxo-7-(3-trifluoromethylphenyl)]heytyl}-3-{[5-(3 4-dichlorophenyl)-1-oxo-2,3,5-triaza-4-thio]pentyl}benzene] | 154
32 | O=C(CCCCc1ccccc1)Nc1cccc(S(=O)(=O)NNC(=S)Nc2ccc(Cl)c(Cl)c2)c1 [Compound 35] | 372
